Each compound was assayed against T1, HEK-hKv7.2/hKv7.3 cells (Homo sapiens, UniProt O43525+O43526) (assay: Thallium influx assay for potassium channel activation). Conditions: AUC as readout, normalized to a reference compound.
T1 construct: P2A self-cleaving peptide between the two subunits (remnant after ribosomal skipping); expressed in transfected cells
T1 sequence (O43525 whole entry): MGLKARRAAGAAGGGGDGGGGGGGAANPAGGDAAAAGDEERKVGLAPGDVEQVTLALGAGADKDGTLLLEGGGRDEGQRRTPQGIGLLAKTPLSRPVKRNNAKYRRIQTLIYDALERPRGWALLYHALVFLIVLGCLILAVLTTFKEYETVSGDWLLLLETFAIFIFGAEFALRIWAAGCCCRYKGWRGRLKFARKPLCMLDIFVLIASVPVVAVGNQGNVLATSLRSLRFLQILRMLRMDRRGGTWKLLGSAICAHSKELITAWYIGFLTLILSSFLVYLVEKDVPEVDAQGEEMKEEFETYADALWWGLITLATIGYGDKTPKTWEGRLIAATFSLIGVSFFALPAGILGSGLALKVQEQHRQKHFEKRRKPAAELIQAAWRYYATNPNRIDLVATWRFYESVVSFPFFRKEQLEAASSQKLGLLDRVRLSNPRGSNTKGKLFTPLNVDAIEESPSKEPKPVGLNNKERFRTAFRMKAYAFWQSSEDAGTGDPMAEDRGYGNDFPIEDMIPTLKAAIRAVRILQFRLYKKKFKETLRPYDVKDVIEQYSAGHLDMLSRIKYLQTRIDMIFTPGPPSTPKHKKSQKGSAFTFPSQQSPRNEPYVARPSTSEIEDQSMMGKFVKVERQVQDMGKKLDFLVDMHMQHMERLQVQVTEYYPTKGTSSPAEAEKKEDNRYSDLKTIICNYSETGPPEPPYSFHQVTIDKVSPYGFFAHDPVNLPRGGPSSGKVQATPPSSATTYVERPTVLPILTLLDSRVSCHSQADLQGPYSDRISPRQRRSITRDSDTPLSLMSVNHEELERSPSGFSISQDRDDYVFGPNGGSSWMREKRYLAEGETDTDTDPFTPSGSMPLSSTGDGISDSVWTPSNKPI
T1 sequence (O43526 whole entry): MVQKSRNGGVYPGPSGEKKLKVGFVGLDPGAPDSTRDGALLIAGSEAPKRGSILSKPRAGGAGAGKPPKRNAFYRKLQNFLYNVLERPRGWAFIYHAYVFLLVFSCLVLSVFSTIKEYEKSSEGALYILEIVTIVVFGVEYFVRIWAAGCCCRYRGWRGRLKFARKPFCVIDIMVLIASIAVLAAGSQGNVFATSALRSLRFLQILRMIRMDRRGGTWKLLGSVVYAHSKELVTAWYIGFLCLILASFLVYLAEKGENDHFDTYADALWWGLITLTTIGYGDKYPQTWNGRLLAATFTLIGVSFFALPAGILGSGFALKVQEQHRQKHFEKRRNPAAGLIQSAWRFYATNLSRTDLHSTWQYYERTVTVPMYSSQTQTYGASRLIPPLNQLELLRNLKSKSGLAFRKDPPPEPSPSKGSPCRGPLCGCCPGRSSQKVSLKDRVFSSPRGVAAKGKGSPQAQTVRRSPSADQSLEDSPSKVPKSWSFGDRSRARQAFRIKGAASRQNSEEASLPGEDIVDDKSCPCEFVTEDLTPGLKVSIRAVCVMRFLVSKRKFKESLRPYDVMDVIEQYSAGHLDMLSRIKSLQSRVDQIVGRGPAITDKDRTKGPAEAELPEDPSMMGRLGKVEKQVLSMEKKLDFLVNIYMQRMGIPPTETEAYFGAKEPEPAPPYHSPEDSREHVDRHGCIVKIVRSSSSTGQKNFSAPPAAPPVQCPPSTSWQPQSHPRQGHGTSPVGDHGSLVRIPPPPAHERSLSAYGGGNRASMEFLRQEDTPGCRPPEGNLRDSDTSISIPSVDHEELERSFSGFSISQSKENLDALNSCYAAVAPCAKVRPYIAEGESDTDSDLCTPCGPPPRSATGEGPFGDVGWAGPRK
Type: cell-based
Protocol: (§1) A synthesized cDNA fragment encoding human Kv7.3 and human Kv7.2 separated by a P2A sequence was inserted into the pcDNA5/FRT/TO vector using the BamHI and XhoI restriction sites. The construct was then transfected into HEK Flp-In 293 cells using Lipofectamine2000. The transfected cells were grown for 48 hours in DMEM containing 10% (v/v) FBS and 1% PenStrep and subsequently maintained under selection in DMEM containing 10% (v/v) FBS, 1 % PenStrep and 200 ug/mL Hygromycin B at 37°C in a humidified atmosphere of 5% CO2.
The thallium influx assay for potassium channel activation was performed analogously to a published procedure (C.D. Weaver, et al., J Biomol Screen 2004, 9, 671-677) using the FLIPR Potassium Assay kit (Molecular Devices). HEK-hKv7.2/hKv7.3 cells were plated onto 96-well, black-walled, clear-bottomed culture plates (Corning, Acton, MA, USA) at a density of 80,000 cells/well (100 µl/well) if the cells were assayed the following day, or 40,000 cells/well (100 µl/well) if the cells were assayed two days after seeding.
On the assay day, the medium was removed after which 50 uL/well of test compound diluted to 2x final concentration in HBSS containing 20 mM HEPES, and 50 uL/well of 2x dye load buffer were added. The cells were then incubated for 60 min at room temperature in the dark. Chloride-free stimulation buffer containing Tl^+ and K^+ at 5x final concentration (5x concentration: 5 mM in both cases) and test compound at 1x final concentration, were prepared during the incubation. The cells were then assayed in a FDSS7000EX Functional Drug Screening System (Hamamatsu). Following 60 sec of baseline fluorescence signal reading at 0.1 Hz, and 10 sec at 1 Hz, 25 uL/well of stimulation buffer were added and the fluorescence continuously measured for 50 sec at 1 Hz followed, by 4 min at 0.1 Hz. Compound effect was quantified using AUC as readout and normalized to a reference compound, which was included on each plate.
Compound `C[C@H](NC(=O)CC(O)C1CC(F)(F)C1)c1cccc(OC(F)(F)F)c1` (stereo in doubt) [Example 11a, 3-(3,3-Difluorocyclobutyl)-3-hydroxy-N-((S)-1-(3-(trifluoromethoxy)phenyl)ethyl)propanamide] has an EC50 of 1500 nM. Work on `C[C@H](NC(=O)C[C@H](O)C(C)(C)C)c1cccc(OC(F)(F)F)c1` [Example 1a, (S)-3-Hydroxy-4,4-dimethyl-N-((S)-1-(3-(trifluoromethoxy)phenyl)ethyl)pentanamide] yielded an EC50 of 680 nM. Work on `C[C@H](NC(=O)C[C@@H](O)C(C)(C)C)c1cccc(OC(F)(F)F)c1` [Example 1b, (R)-3-Hydroxy-4,4-dimethyl-N-[(1S)-1-[3-(trifluoromethoxy)phenyl]ethyl]pentanamide] yielded an EC50 of 3300 nM. `C[C@H](NC(=O)CC1(O)CC(F)(F)C1)c1cccc(OC(F)(F)F)c1` [Example 5, (S)-2-(3,3-difluoro-1-hydroxycyclobutyl)-N-(1-(3-(trifluoromethoxy)phenyl)ethyl)acetamide] was tested, and the EC50 was 1800 nM. `C[C@H](NC(=O)CC1(O)CCC1)c1cccc(OCC(F)(F)F)c1` [Example 6, (S)-2-(1-Hydroxycyclobutyl)-N-(1-(3-(2,2,2-trifluoroethoxy)phenyl)ethyl) acetamide] was tested, and the EC50 was 3000 nM. Work on `C[C@H](NC(=O)CC(O)(C(F)(F)F)C(F)(F)F)c1cccc(OC(F)(F)F)c1` [Example 9, 4,4,4-Trifluoro-3-hydroxy-N-[(1S)-1-[3-(trifluoro-methoxy)phenyl]ethyl]-3-(trifluoromethyl)butanamide] yielded an EC50 of 560 nM. `COC[C@H](NC(=O)CC1(O)CCCC1)c1cccc(OC(F)(F)F)c1` [Example 17, (R)-2-(1-Hydroxycyclopentyl)-N-(2-methoxy-1-(3-(trifluoromethoxy)phenyl)ethyl) acetamide] gave an EC50 of 2500 nM.

The compounds below were run against T2, hKv7.2/hKv7.3 cell line (HEK-hKv7.2/hKv7.3) (Homo sapiens, UniProt O43525+O43526) (assay: Automated whole cell patch-clamp functional test of the stable cell line). Conditions: stable HEK-hKv7.2/hKv7.3 cell line.
T2 construct: P2A self-cleaving peptide between the two subunits (remnant after ribosomal skipping); expressed in transfected cells
T2 sequence (O43525 whole entry): as the sequence (O43525 whole entry) above
T2 sequence (O43526 whole entry): as the sequence (O43526 whole entry) above
Type: cell-based
Protocol: as §1
In the case of `CCOC(=O)Nc1ccc(NCc2ccc(F)cc2)cc1N` [Retigabine, N-(2-amino-4-(4-fluorobenzylamino)-phenyl) carbamic acid ethyl ester], the “effect on Kv7-current” value is reported as “potentiated”. For `O=C1c2ccccc2C(Cc2ccncc2)(Cc2ccncc2)c2ccccc21` [XE991], the “effect on Kv7-current” value was “sensitive”.
